Like-named read-outs stand apart in the source and are kept apart here.
Key:
BL-41 = assay: CellTiter-Glo (CTG) cell proliferation assay, 72 hours; format: cell-based; details: Homo sapiens, Burkitt Lymphoma
Experimental: (§1) Preparation of Solutions of Test Article: Compounds were plated into black 384-well plates (Corning Inc.) to a final DMSO volume of 0.1% assuming a maximal volume of 50 μL. A 10-point dose response starting at 10 μM with a 1:3 dilution was printed in duplicate by acoustic dispense using the EDC ATS-100 platform.
(§2) Cell Proliferation Assays: The effect of Compound 1 on the proliferation/viability of the hematological cell lines (Table 1 Table, Table 2 and Table 3), THLE-2, or PBMCs was assessed after 72 hours incubation using CTG (Promega), according to manufacturer's instructions. Hematological cell lines were dispensed into compound plates by a Multidrop™ Combi Reagent Dispenser (Thermo Scientific, Waltham, Mass.) at a concentration of 0.1 to 0.3×10^6 cells per mL in a 50 μL total volume. THLE-2 cells were seeded out at 1000 cells per well in 50 μL volume and incubated for 72 hours. At 72 hours, 25 μL per well of CTG was dispensed by a Multidrop™ Combi Reagent Dispenser and adenosine triphosphate (ATP) release by viable cells was measured as relative luminescence units after 30 minutes using the Envision platform.

BL-70 = assay: as above; format: cell-based; details: Homo sapiens, Burkitt Lymphoma
Experimental: as §1, §2

Blue-1 = assay: as above; format: cell-based; details: Homo sapiens, Burkitt Lymphoma
Experimental: as §1, §2

DG-75 = assay: as above; format: cell-based; details: Homo sapiens, Burkitt Lymphoma
Experimental: as §1, §2

Daudi = assay: as above; format: cell-based; details: Homo sapiens, Burkitt Lymphoma
Experimental: as §1, §2

EB-1 = assay: as above; format: cell-based; details: Homo sapiens, EB1, Burkitt Lymphoma
Experimental: as §1, §2

HS-Sultan = assay: as above; format: cell-based; details: Homo sapiens, Burkitt Lymphoma
Experimental: as §1, §2

Karpas 231 = assay: as above; format: cell-based; details: Homo sapiens, Acute Lymphoblastic Leukemia
Experimental: as §1, §2

Karpas 299 = assay: as above; format: cell-based; details: Homo sapiens, Anaplastic Large Cell Lymphoma
Experimental: as §1, §2

MC-116 = assay: as above; format: cell-based; details: Homo sapiens, MC116, Acute Lymphoblastic Leukemia
Experimental: as §1, §2

Namalwa = assay: as above; format: cell-based; details: Homo sapiens, Burkitt Lymphoma
Experimental: as §1, §2

OCI-LY-10 = assay: as above; format: cell-based; details: Homo sapiens, OCI-Ly10, Diffuse Large B-cell Lymphoma (activated B-cell like)
Experimental: as §1, §2

RC-K8 = assay: as above; format: cell-based; details: Homo sapiens, RCK8, Diffuse Large B-cell Lymphoma (activated B-cell like)
Experimental: as §1, §2

Raji = assay: as above; format: cell-based; details: Homo sapiens, Burkitt Lymphoma
Experimental: as §1, §2

Ramos = assay: as above; format: cell-based; details: Homo sapiens, Burkitt Lymphoma
Experimental: as §1, §2

SR = assay: as above; format: cell-based; details: Homo sapiens, Acute Lymphoblastic Leukemia
Experimental: as §1, §2

U2932 = assay: as above; format: cell-based; details: Homo sapiens, Diffuse Large B-cell Lymphoma (activated B-cell like)
Experimental: as §1, §2

[1] = system: HR-MDS, sAML and normal bone marrow progenitors; assay: SL/M2 stromal co-culture colony replating assay (cell self-renewal assay); format: cell-based, human; details: 1 nM and 10 nM; sAML and HR-MDS progenitors more than normal bone marrow progenitors
Experimental: Compound 1 at the indicated concentrations was added at the initiation of co-culture, with DMSO as a vehicle control. Colonies were scored to determine the effect of Compound 1 on cell survival (FIG. 36A) and self-renewal (FIG. 36B). ***, p<0.001, AML vs normal bone marrow controls treated with 1 nM of compound 1 (one-way ANOVA). **, p=0.01, AML vs normal bone marrow controls treated with 10 nM of Compound 1 (one-way ANOVA). Error bars represent mean values SD.
Methods. Mouse stromal cells SL/M2 stably expressing human interleukin-3 (IL-3), granulocyte colony stimulating factor (G-CSF) and stem cell factor (SCF) were cultured to confluency, followed by gamma-irradiation. Human CD34+ bone marrow cells isolated from 3 high-risk MDS patients (HR-MDS), 3 secondary AML patients arising from MDS (sAML) and 5 age-matched healthy donors were then cultured with inactivated SL/M2 cells for a week. Next, human progenitor cells were quantified by FACS and cells were plated in methylcellulose for colony forming assay (cell survival assay). After two weeks, 20-25 colonies were picked from each condition, resuspended and replated in fresh methylcellulose for 2nd round of colony forming assay (cell self-renewal assay).

HL-60 human AML cells = format: in vivo, SCID mice; details: for reduction in percentage of human CD33+/CD45+ tumor cells in the BM: vs vehicle control
Experimental: In this study, Compound 1 antitumor activity in the HL-60 IV AML xenograft model was studies. In this model, HL-60 human AML cells engraft in host BM and internal organs (eg, spleen, liver) and animals develop progressive peripheral leukocytosis. Female severe combined immunodeficiency (SCID) mice were inoculated with HL-60 cells by tail vein injection. To understand the effect of Compound 1 on the xenografted HL-60 cells, animals were dosed intraperitoneal (IP) with vehicle or Compound 1 (0.5, 1, 2.5, and 5 mg/kg) once daily (QD)×5 between Weeks 3 and 4 post-engraftment (AP6516, survival study) or animals were dosed IP twice daily (BID) with vehicle or Compound 1 for 5 or 10 consecutive days (5 mg/kg BID×5 or 2.5 mg/kg, BID×10) between Weeks 6 and 8 post-engraftment (Study AP6982, % human CD33+[hCD33+] cells in BM).
In this study, different Compound 1 dosing schedules (5 mg/kg, BID×5 consecutive days versus 2.5 mg/kg, BID×10 consecutive days) were studied while maintaining the total amount of drug administered constant. Vehicle control animals were treated with 5% N-methyl-2-pyrrolidone (NMP)/45% PEG 400/50% saline. Treatment was initiated 6 weeks post inoculation. Vehicle and Compound 1 treatment groups were terminated either on Day 7 (following 5 consecutive days of 5 mg/kg twice a day [BID] Compound 1) or on Day 11 (following 10 consecutive days of 2.5 mg/kg BID Compound 1) post treatment initiation. The primary endpoint for the study was percentage of hCD33+/CD45+ cells in the BM by FACS analysis. Additional endpoints included cell viability, body weight, and BM histology.
HL-60 cells were identified from femur bone marrow samples by FACS analysis as CD33+/CD45+ with human specific antibodies. The percentage of human CD33+/CD45+ cells in the BM of vehicle-treated animals from the BID×5 and BID×10 groups were 47.5±6% and 55.2±6%, respectively.

Compound: O=C1CCC(N2Cc3cc(CNC(=O)C(F)(F)c4ccc(Cl)cc4)ccc3C2=O)C(=O)N1 (stereo not shown) [Compound 1, 2-(4-chlorophenyl)-N-((2-(2,6-dioxopiperidin-3-yl)-1-oxoisoindolin-5-yl)methyl)-2,2-difluoroacetamide]
- IC50 (BL-41): > 10 µM
- IC50 (BL-70): 0.347 µM
- IC50 (Blue-1): 0.986 µM
- IC50 (DG-75): > 10 µM
- IC50 (Daudi): 0.393 µM
- IC50 (EB-1): 0.0663 µM
- IC50 (HS-Sultan): > 10 µM
- IC50 (Karpas 231): 0.79 µM
- IC50 (Karpas 299): > 10 µM
- IC50 (MC-116): > 10 µM
- IC50 (Namalwa): 0.0746 µM
- IC50 (OCI-LY-10): > 10 µM
- IC50 (RC-K8): 0.956 µM
- IC50 (Raji): > 10 µM
- IC50 (Ramos): > 10 µM
- IC50 (SR): > 10 µM
- IC50 (U2932): 0.904 µM
- colony replating (self-renewal) [1]: significantly reduced the self-renewal
- human CD33+/CD45+ cells in the BM (HL-60 human AML cells; 2.5 mg/kg IP BID×10): 15.7%
- reduction in percentage of human CD33+/CD45+ tumor cells in the BM (HL-60 human AML cells; 2.5 mg/kg IP BID×10, p<0.0001): 71.5%
- human CD33+/CD45+ cells in the BM (HL-60 human AML cells; 5 mg/kg IP BID×5): 21.9%
- reduction in percentage of human CD33+/CD45+ tumor cells in the BM (HL-60 human AML cells; 5 mg/kg IP BID×5, p=0.0013): 54.0%
